Where two headings read alike, the source gives them in different places.
Tests used:
Type in all cases: in vivo, mice
Influenza viruses = assay: Mouse-Survival Test (Test No. 1), Influenza virus strain not given; settings: unidentified influenza virus, 360 h; for response vs control in vivo at 50 mg/kg / response vs control in vivo at 500 mg/kg / response vs control in vivo at 5 mg/kg: read-out: Survival Index (S.I.); for responders at 50 mg/kg / responders at 500 mg/kg / responders at 5 mg/kg: read-out: Survival Percent
Influenza virus Jap 305 [1] = assay: Mouse-Survival Test (Test No. 1), Influenza Jap 305; settings: for S.I.: significant if >1.24
Influenza virus Jap 305 [2] = settings: 1 dose, 30 minutes before infection, 15 multiples of LD50
[3] = Jap 305, 50 mg/kg PO, virus dose 15 multiples of LD50
[4] = Jap 305, 500 mg/kg IP, virus dose 22 multiples of LD50
[5] = Jap 305, 500 mg/kg PO, virus dose 15 multiples of LD50

CCc1nn(C(C)C)c(-c2ccncc2)c1-c1ccccc1O [Compound H, 2-isopropyl-3-(4-pyridyl)-4-(2-hydroxyphenyl)-5-ethylpyrazole]
response vs control in vivo at 50 mg/kg (Influenza viruses; ip): 135% | response vs control in vivo at 500 mg/kg (Influenza viruses; ip): 191% | responders at 50 mg/kg (Influenza viruses; ip): 0% | responders at 500 mg/kg (Influenza viruses; ip): 30%

COc1ccc(O)c(-c2c(-c3ccncc3)n[nH]c2C)c1 [Compound F, 3-(4-pyridyl)-4-(2-hydroxy-5-methoxy-phenyl)-5-methylpyrazole]
response vs control in vivo at 500 mg/kg (Influenza viruses; ip): 129% | responders at 500 mg/kg (Influenza viruses; ip): 0%

CCCCc1[nH]nc(-c2ccncc2)c1-c1ccccc1O [Compound E, 3-(4-pyridyl)-4-(2-hydroxyphenyl)-5-n-butylpyrazole]
response vs control in vivo at 50 mg/kg (Influenza viruses; ip): 130% | response vs control in vivo at 500 mg/kg (Influenza viruses; ip): 162% | responders at 50 mg/kg (Influenza viruses; ip): 10% | responders at 500 mg/kg (Influenza viruses; ip): 10%

CCCCn1nc(CC)c(-c2ccccc2O)c1-c1ccncc1 [Compound I, 2-n-butyl-3-(4-pyridyl)-4-(2-hydroxyphenyl)-5-ethylpyrazole]
response vs control in vivo at 5 mg/kg (Influenza viruses; ip): 132% | response vs control in vivo at 50 mg/kg (Influenza viruses; ip): 148% | response vs control in vivo at 500 mg/kg (Influenza viruses; ip): 191% | responders at 5 mg/kg (Influenza viruses; ip): 0% | responders at 50 mg/kg (Influenza viruses; ip): 0% | responders at 500 mg/kg (Influenza viruses; ip): 14%

CC(C)c1[nH]nc(-c2ccncc2)c1-c1ccccc1O [Compound D, 3-(4-pyridyl)-4-(2-hydroxyphenyl)-5-isopropylpyrazole]
response vs control in vivo at 5 mg/kg (Influenza viruses; ip): 136% | response vs control in vivo at 50 mg/kg (Influenza viruses; ip): 131% | response vs control in vivo at 500 mg/kg (Influenza viruses; ip): 269% | responders at 5 mg/kg (Influenza viruses; ip): 0% | responders at 50 mg/kg (Influenza viruses; ip): 0% | responders at 500 mg/kg (Influenza viruses; ip): 100% | response vs control in vivo at 50 mg/kg (Influenza viruses; po): 167% | response vs control in vivo at 500 mg/kg (Influenza viruses; po): 214% | responders at 50 mg/kg (Influenza viruses; po): 40% | responders at 500 mg/kg (Influenza viruses; po): 60% | Survival Percent (Influenza virus Jap 305 [1]; [3]): 30% | S.I. (Influenza virus Jap 305 [1]; [3]): 1.31 | Survival Percent (Influenza virus Jap 305 [1]; [4]): 70% | S.I. (Influenza virus Jap 305 [1]; [4]): 2.16 | Survival Percent (Influenza virus Jap 305 [1]; [5]): 100% | S.I. (Influenza virus Jap 305 [1]; [5]): 2.12 | MDD (Mean Day of Death) (Influenza virus Jap 305 [2]; intranasal 2.5% suspension): 10.50 days | S.I. (Influenza virus Jap 305 [2]; intranasal 2.5% suspension): 1.49 | Survival Percent (Influenza virus Jap 305 [2]; intranasal 2.5% suspension): 40% | MDD (Mean Day of Death) (Influenza virus Jap 305 [2]; intranasal 5% suspension): 9.76 days | S.I. (Influenza virus Jap 305 [2]; intranasal 5% suspension): 1.38 | Survival Percent (Influenza virus Jap 305 [2]; intranasal 5% suspension): 30% | MDD (Mean Day of Death) (Influenza virus Jap 305 [2]; intranasal 10% suspension): 13.00 days | S.I. (Influenza virus Jap 305 [2]; intranasal 10% suspension): 1.84 | Survival Percent (Influenza virus Jap 305 [2]; intranasal 10% suspension): 60%

CCc1nn(C)c(-c2ccncc2)c1-c1ccccc1O [Compound G, 2-methyl-3-(4-pyridyl)-4-(2-hydroxyphenyl)-5-ethyl-pyrazole]
response vs control in vivo at 50 mg/kg (Influenza viruses; ip): 130% | response vs control in vivo at 500 mg/kg (Influenza viruses; ip): 217% | responders at 50 mg/kg (Influenza viruses; ip): 0% | responders at 500 mg/kg (Influenza viruses; ip): 60%

Cc1[nH]nc(-c2ccncc2)c1-c1ccccc1O [Compound B, 3-(4-pyridyl)-4-(2-hydroxyphenyl)-5-methylpyrazole]
response vs control in vivo at 500 mg/kg (Influenza viruses; ip): 129% | responders at 500 mg/kg (Influenza viruses; ip): 0%

CCCc1[nH]nc(-c2ccncc2)c1-c1ccccc1O [Compound C, 3-(4-pyridyl)-4-(2-hydroxyphenyl)-5-n-propyl-pyrazole]
response vs control in vivo at 500 mg/kg (Influenza viruses; ip): 184% | responders at 500 mg/kg (Influenza viruses; ip): 50%
